Results from ChEMBL document CHEMBL1122992, “Phosphorus-nitrogen compounds. 26. Phosphaminimides. 2. 2,2'-Phosphinylidenebis(1,1,1-trimethylhydrazinium) iodide inner salts as agents affecting ganglionic transmission” (J Med Chem, 1985).

System: Rattus norvegicus
Test: LD50 values was measured by using probit analysis method in rats
Assay type: ADME, organism-based
Settings: in vivo

C[N+](C)(C)N=P([O-])(N[N+](C)(C)C)Oc1ccccc1.[I-] (stereo unspecified)
LD50: ~ 15 ug ml-1

C[N+](C)(C)NP(=O)(N[N+](C)(C)C)c1ccccc1.[I-].[I-]
LD50: 2.15 µg/mL

C[N+](C)(C)NP(=O)(N[N+](C)(C)C)Oc1ccccc1.[I-].[I-]
LD50: 2.37 µg/mL

C[N+](C)(C)[N-]P(=O)(N[N+](C)(C)C)Oc1ccccc1.[I-] (stereo unspecified)
LD50: 15 µg/mL

C[N+](C)(C)N=P([O-])(N[N+](C)(C)C)c1ccccc1.[I-] (stereo unspecified)
LD50: ~ 15 ug ml-1

C[N+](C)(C)[N-]P(=O)(N[N+](C)(C)C)c1ccccc1.[I-] (stereo unspecified)
LD50: ~ 15 ug ml-1
